These results are taken from PubChem BioAssay (NCI).

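Briefly, cells in 96-well plates were exposed to five compound concentrations for 48 h, and endpoints were estimated by linear interpolation. GI50: concentration for 50% inhibition of growth. Definition used: TGI = concentration required for complete inhibition of growth.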

Among the test systems are KM12 colon; HOP-92 NSCLC; LOX IMVI melanoma; SF-295 CNS; NCI-H23 lung; MALME-3M melanoma; HOP-62 NSCLC; ACHN renal; K-562 leukemia.
What all share (assay): NCI anticancer screen, dose series, 48 h

With `CCCCCCCCCCCCCC/C(C(=O)OC)=C(/O)C(=O)OCC`, the TGI is 59.8 µM in the test on KM12 colon; 54.5 µM in the test on HOP-92 NSCLC; 39.3 µM with LOX IMVI melanoma; 40.9 µM with SF-295 CNS; greater than 100 µM in the test with NCI-H23 lung; greater than 100 µM in the test on MALME-3M melanoma. Moreover, the TGI with HOP-62 NSCLC, in the test with ACHN renal and in the test on K-562 leukemia was greater than 100 µM each time.
As to `CN(C)c1ccc(/C=C2\CNC/C(=C\c3ccc(N(C)C)cc3)C2=O)cc1`, the TGI in the test on HOP-92 NSCLC was 55.2 µM; in the test on LOX IMVI melanoma, 37 µM; in the test on SF-295 CNS it was greater than 100 µM; in the test on NCI-H23 lung, greater than 100 µM; in the test on MALME-3M melanoma, greater than 100 µM; in the test with HOP-62 NSCLC it was greater than 100 µM. For the same compound, the TGI is 54 µM with ACHN renal and greater than 100 µM in the test with K-562 leukemia.
For `CC(=O)O[C@H]1[C@@H]2[C@@H]3[C@@H](C[C@H]1C)[C@@H](C)CO[C@@]1(C)CC/C=C(/C)C[C@@H]2O[C@@H]31`, the TGI with KM12 colon, in the test on HOP-92 NSCLC, in the test with LOX IMVI melanoma, in the test with SF-295 CNS, in the test on NCI-H23 lung and in the test with MALME-3M melanoma was greater than 100 µM throughout. Further, the TGI in the test with HOP-62 NSCLC, with ACHN renal and with K-562 leukemia was greater than 100 µM throughout.
In the case of `Cc1c(O)c(=O)ccn1C1OC(CO)C(O)C1O` (stereo unspecified), the TGI in the test with KM12 colon, in the test with HOP-92 NSCLC, with LOX IMVI melanoma, in the test on SF-295 CNS, in the test on MALME-3M melanoma and in the test on HOP-62 NSCLC was greater than 100 µM throughout. Further, the TGI with ACHN renal and in the test on K-562 leukemia was greater than 100 µM each time.
As to `CCOP(=O)(CC(=O)C1=C(O)C(CCCNC(=O)OC(C)(C)C)N(Cc2ccc(OC)c(OC)c2)C1=O)OCC` (stereo unspecified), the TGI in the test with KM12 colon, in the test on LOX IMVI melanoma, in the test on SF-295 CNS, in the test with NCI-H23 lung, in the test with MALME-3M melanoma and in the test on HOP-62 NSCLC was greater than 100 µM in each case. Besides, the TGI in the test on ACHN renal and in the test on K-562 leukemia was greater than 100 µM in each case.
Regarding `CC(=O)NNc1nc(C)c(C(/C=C/c2ccc(Cl)cc2)=N\NS(=O)(=O)c2ccc(C)cc2)s1`, the TGI with KM12 colon, in the test on HOP-92 NSCLC, with LOX IMVI melanoma, in the test with SF-295 CNS, with NCI-H23 lung and in the test with MALME-3M melanoma was greater than 100 µM throughout. Moreover, the TGI in the test on HOP-62 NSCLC, with ACHN renal and with K-562 leukemia was greater than 100 µM in each case.
Consider `CCOc1ccccc1NC(=O)CCc1nnc2s/c(=C\CCc3ccccc3)c(=O)n12`, for which the TGI in the test with KM12 colon, with HOP-92 NSCLC, in the test on LOX IMVI melanoma, in the test on SF-295 CNS, with NCI-H23 lung and in the test with MALME-3M melanoma was greater than 100 µM throughout. Also, the TGI in the test on HOP-62 NSCLC, in the test on ACHN renal and in the test on K-562 leukemia was greater than 100 µM in each case.
Consider `O=C([O-])c1ccc2c(c1)-c1nc-2nc2[n-]c(nc3nc(nc4[n-]c(n1)c1ccc(C(=O)[O-])cc41)-c1cc(C(=O)[O-])ccc1-3)c1ccc(C(=O)[O-])cc21.[Fe+2]`, for which the GI50 in the test with KM12 colon was greater than 50 µM; in the test with HOP-92 NSCLC it was greater than 50 µM; with LOX IMVI melanoma it was 20.7 µM; in the test on SF-295 CNS, greater than 50 µM; in the test on NCI-H23 lung, greater than 50 µM; with MALME-3M melanoma, greater than 50 µM. For the same compound, the values for the GI50 in the test on HOP-62 NSCLC, in the test on ACHN renal and with K-562 leukemia were greater than 50 µM, greater than 50 µM and greater than 23 µM, respectively. Besides, the TGI with KM12 colon was greater than 50 µM; in the test with HOP-92 NSCLC, greater than 50 µM; with LOX IMVI melanoma it was greater than 42.9 µM; with SF-295 CNS, greater than 50 µM; in the test on NCI-H23 lung it was greater than 50 µM; with MALME-3M melanoma, greater than 50 µM. For the same compound, the TGI in the test with HOP-62 NSCLC is greater than 50 µM; with ACHN renal it was greater than 50 µM; in the test with K-562 leukemia it was greater than 33.7 µM.
For `FC(F)(F)c1ccc(C=NC23CC4CC(CC(C4)C2)C3)cc1`, the TGI in the test with KM12 colon, in the test on HOP-92 NSCLC, in the test with LOX IMVI melanoma, with SF-295 CNS, with NCI-H23 lung and in the test on MALME-3M melanoma was greater than 100 µM throughout. For the same compound, the TGI with HOP-62 NSCLC, with ACHN renal and in the test on K-562 leukemia was greater than 100 µM throughout.
Consider `CC1C=C(OC(=O)c2ccccc2)C(=O)C(n2cc(F)c(=O)n(C(=O)c3ccccc3)c2=O)O1` (stereo unspecified), for which the TGI in the test on HOP-92 NSCLC is greater than 100 µM; with LOX IMVI melanoma, 55 µM; with SF-295 CNS, greater than 100 µM; in the test on NCI-H23 lung, greater than 100 µM; in the test with MALME-3M melanoma it was 95.7 µM; in the test with HOP-62 NSCLC, greater than 100 µM. The TGI was greater than 100 µM in the test with ACHN renal and 55.1 µM in the test with K-562 leukemia.
For the compound `COC(=O)C1=C(C(=O)OC)C23C=CC=CC24C(C(=O)OC)=C(C(=O)OC)C4C1C3` (stereo unspecified), the TGI with KM12 colon, with HOP-92 NSCLC, in the test on SF-295 CNS, in the test on NCI-H23 lung, in the test with MALME-3M melanoma and with HOP-62 NSCLC was greater than 100 µM each time. Further, the TGI in the test with ACHN renal and in the test with K-562 leukemia was greater than 100 µM each time.
`N#C/C(=C/c1cccnc1)C(=O)c1ccccc1`: the TGI in the test with KM12 colon, with HOP-92 NSCLC, with LOX IMVI melanoma, in the test on SF-295 CNS, in the test with NCI-H23 lung and with MALME-3M melanoma was greater than 100 µM each time. The TGI in the test with HOP-62 NSCLC, with ACHN renal and with K-562 leukemia was greater than 100 µM each time.
As for `CC1CCCC(C(O)CC2CC(=O)N(c3ccccc3)C(=O)C2)C1=O` (stereo unspecified), the TGI in the test with KM12 colon, in the test on HOP-92 NSCLC, in the test on LOX IMVI melanoma, with SF-295 CNS, in the test with NCI-H23 lung and with MALME-3M melanoma was greater than 100 µM in each case. For the same compound, the TGI with HOP-62 NSCLC, in the test on ACHN renal and with K-562 leukemia was greater than 100 µM each time.
